Patent US10441597B2, “Ciclesonide for the treatment of airway disease in horses” (Boehringer Ingelheim Vetmedica GmbH, priority 2012, dated 2019)
Read-outs that look alike come from different tables or passages of the source.

Legend:
cortisol levels [1] = details: horses; after aerosol administration; cited from earlier work
cortisol levels [2] = details: humans; after aerosol administration/inhalation; cited from earlier work
RAO horses [3] = experiment: Moldy hay challenge study in RAO horses: clinical score (breathing effort score, weighted clinical score); assay type: in vivo, horse; details: dexamethasone 0.066 mg/kg per os once daily
Source text: (§1) The commercially available […]® is used in the study.

[4] = when taken orally; cited from earlier work
RAO horses [5] = experiment: Moldy hay challenge study in RAO horses: lung function variables (transpulmonary pressure, lung resistance, lung elastance); assay type: in vivo, horse; details: dexamethasone 0.066 mg/kg per os once daily, after 14 days
Source text: as §1

[6] = system: segmented neutrophils and lymphocytes; experiment: Moldy hay challenge study in RAO horses: segmented neutrophil and lymphocyte counts; assay type: in vivo, horse; details: for Lymphocytes count after administration / Segmented neutrophil count after administration: dexamethasone 0.066 mg/kg per os once daily
Procedure: as §1
The segmented neutrophil counts and the lymphocyte counts are determined in the studies above: ciclesonide treatment versus dexamethasone treatment.

SMILES	Measured cortisol levels (cortisol levels [1])	Measured cortisol levels (cortisol levels [2])	Breathing effort score (RAO horses [3]; 1st ciclesonide study, any measured time point)	Weighted clinical score compared to pretreatment values (RAO horses [3]; 2nd ciclesonide study, after 14 days, p=0.0001 to p<0.0001)	Clinical score compared to pretreatment values (RAO horses [3]; Budesonide study, after 7 and 14 days, p=0.002 to p<0.0001)	Potency relative to prednisone [4] [times]	Potency relative to the naturally occurring hormone cortisol [4] [times]	All lung function variables compared to pretreatment values (RAO horses [5]; 1st ciclesonide study, p<0.0001)	All lung function variables compared to pretreatment values (RAO horses [5]; 2nd ciclesonide study, p=0.0009 to p<0.0001)	All lung function variables compared to pretreatment values (RAO horses [5]; Budesonide study, p≤0.0001)	Lymphocytes count after administration ([6]; 1st ciclesonide study)	Segmented neutrophil count after administration ([6]; 1st ciclesonide study)	Lymphocytes count after administration ([6]; 2nd ciclesonide study)	Segmented neutrophil count after administration ([6]; 2nd ciclesonide study)	Neutrophilia and lymphopenia ([6]; after treatment with dexamethasone, 1st and 2nd ciclesonide studies (Table 2))
C[C@@H]1C[C@H]2[C@@H]3C[C@H](F)C4=CC(=O)C=C[C@]4(C)[C@@]3(F)[C@@H](O)C[C@]2(C)[C@@]1(O)C(=O)SCF [fluticasone]	significant suppression	significant suppression	–	–	–	–	–	–	–	–	–	–	–	–	–
C[C@@H]1C[C@H]2[C@@H]3CCC4=CC(=O)C=C[C@]4(C)[C@@]3(F)[C@@H](O)C[C@]2(C)[C@@]1(O)C(=O)CO [dexamethasone]	–	–	no significant changes	significantly reduced	significantly reduced	7	27	significantly reduced	significantly reduced	significantly reduced	decreased	increased	decreased	increased	commonly observed
